{"source": "ChEMBL document CHEMBL5104135", "about": "“Potent and selective TYK2-JH1 inhibitors highly efficacious in rodent model of psoriasis” (Bioorg Med Chem Lett, 2022)", "key": {"[1]": {"target": "Tyrosine-protein kinase Lck (Homo sapiens) (UniProt P06239)", "sequence (P06239 2-509 limits assumed)": "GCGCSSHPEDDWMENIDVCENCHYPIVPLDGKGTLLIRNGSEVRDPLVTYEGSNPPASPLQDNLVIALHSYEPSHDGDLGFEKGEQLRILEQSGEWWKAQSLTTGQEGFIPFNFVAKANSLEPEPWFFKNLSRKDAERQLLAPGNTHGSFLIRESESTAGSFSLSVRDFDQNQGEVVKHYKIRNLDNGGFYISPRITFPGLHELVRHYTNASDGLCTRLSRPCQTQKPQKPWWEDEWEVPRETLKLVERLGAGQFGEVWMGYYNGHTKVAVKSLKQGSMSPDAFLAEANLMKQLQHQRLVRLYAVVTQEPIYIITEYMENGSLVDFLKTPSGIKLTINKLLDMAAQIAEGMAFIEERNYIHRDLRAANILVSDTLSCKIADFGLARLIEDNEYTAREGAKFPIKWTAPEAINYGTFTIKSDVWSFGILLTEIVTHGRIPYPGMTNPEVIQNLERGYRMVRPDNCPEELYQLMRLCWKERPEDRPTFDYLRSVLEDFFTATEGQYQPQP", "assay": "Inhibition of human LCK at 10 uM measured by radioligand binding assay relative to control"}, "[2]": {"assay": "Volume of distribution in dog at 3 mg/kg, iv", "type": "ADME, organism-based, Canis lupus familiaris", "conditions": "in vivo"}, "[3]": {"target": "Protein kinase C (PKC) (Rattus norvegicus) (UniProt P05696+P68403+P09216+P63319+P09215+Q64617+Q9WTQ0+P09217)", "assay": "Inhibition of rat PKC at 10 uM measured by radioligand binding assay relative to control", "type": "protein assay"}, "[4]": {"test_system": "Spleen", "assay": "Anti-inflammatory activity in imiquimod-induced mouse psoriasis model assessed as reduction in spleen weight at 10 to 100 mg/kg/day", "type": "functional, organism-based", "conditions": "dose 10-100 mg/kg/day"}, "[5]": {"assay": "Volume of distribution in rat at 3 mg/kg, iv", "type": "ADME, organism-based", "conditions": "in vivo"}, "[6]": {"test_system": "Blood", "assay": "Inhibition of IL-12- induced IFN-gamma production in human whole blood", "type": "functional, tissue-based"}, "[7]": {"assay": "Plasma protein binding in dog assessed as unbound fraction"}, "[8]": {"assay": "Half-life in dog at 3 mg/kg, iv", "type": "ADME, organism-based, Canis lupus familiaris", "conditions": "in vivo"}, "[9]": {"assay": "Clearance in mouse at 3 mg/kg, iv", "type": "ADME, organism-based", "conditions": "in vivo"}, "[10]": {"assay": "Kinetic solubility of compound at pH 7.4", "conditions": "buffer"}, "[11]": {"test_system": "Blood", "assay": "Inhibition of IL-12- induced IFN-gamma production in mouse whole blood", "type": "functional, tissue-based"}, "[12]": {"assay": "Oral bioavailability in dog at 10 mg/kg", "type": "ADME, organism-based, Canis lupus familiaris", "conditions": "in vivo"}, "[13]": {"assay": "Half-life in mouse at 3 mg/kg, iv", "type": "ADME, organism-based", "conditions": "in vivo"}, "[14]": {"assay": "Thermodynamic solubility in fasted simulated intestinal fluid", "type": "physicochemical", "conditions": "read-out: Therm_solubility"}, "[15]": {"test_system": "Spleen", "assay": "Anti-inflammatory activity in imiquimod-induced mouse psoriasis model assessed as reduction in inflammation in spleen at 10 to 100 mg/kg/day", "type": "functional, organism-based", "conditions": "dose 10-100 mg/kg/day"}, "[16]": {"assay": "Oral bioavailability in rat at 10 mg/kg", "type": "ADME, organism-based", "conditions": "in vivo"}, "[17]": {"test_system": "Mus musculus", "assay": "Anti-inflammatory activity in IL-23-induced ear inflammation model of mouse assessed as inhibition of IL-17A levels at 100 mg/kg/day", "type": "functional"}, "[18]": {"assay": "Half-life in rat at 3 mg/kg, iv", "type": "ADME, organism-based", "conditions": "in vivo"}, "[19]": {"assay": "Plasma protein binding in mouse assessed as unbound fraction"}, "[20]": {"test_system": "Mus musculus", "assay": "Anti-inflammatory activity in IL-23-induced ear inflammation model of mouse assessed as inhibition of ear swelling at 100 mg/kg/day", "type": "functional"}, "[21]": {"assay": "Volume of distribution in mouse at 3 mg/kg, iv", "type": "ADME, organism-based", "conditions": "in vivo"}, "[22]": {"assay": "Plasma protein binding in rat assessed as unbound fraction"}, "[23]": {"assay": "Plasma protein binding in dog"}, "[24]": {"assay": "Plasma protein binding in human assessed as unbound fraction"}, "[25]": {"test_system": "Mus musculus", "assay": "Anti-inflammatory activity in imiquimod-induced mouse psoriasis model assessed as reduction in psoriasis score at 10 to 100 mg/kg/day", "type": "functional, organism-based", "conditions": "dose 10-100 mg/kg/day"}, "[26]": {"assay": "Clearance in dog at 3 mg/kg, iv", "type": "ADME, organism-based, Canis lupus familiaris", "conditions": "in vivo"}, "[27]": {"target": "T1, Alpha-2B adrenergic receptor (Homo sapiens) (UniProt P18089)", "T1 sequence (whole entry)": "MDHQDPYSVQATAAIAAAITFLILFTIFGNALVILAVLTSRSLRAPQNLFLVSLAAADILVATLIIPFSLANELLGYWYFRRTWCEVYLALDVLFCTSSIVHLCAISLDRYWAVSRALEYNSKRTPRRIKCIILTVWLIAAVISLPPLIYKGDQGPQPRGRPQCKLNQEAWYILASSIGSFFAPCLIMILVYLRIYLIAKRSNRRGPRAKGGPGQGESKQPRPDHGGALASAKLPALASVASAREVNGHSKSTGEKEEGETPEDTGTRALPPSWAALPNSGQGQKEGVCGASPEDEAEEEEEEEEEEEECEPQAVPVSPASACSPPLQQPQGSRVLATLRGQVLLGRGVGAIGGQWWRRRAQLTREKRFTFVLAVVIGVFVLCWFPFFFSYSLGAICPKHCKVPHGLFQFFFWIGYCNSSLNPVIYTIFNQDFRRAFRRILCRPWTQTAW", "assay": "Inhibition of human adrenergic alpha2B at 10 uM measured by radioligand binding assay relative to control"}, "[28]": {"assay": "Plasma protein binding in rat"}, "[29]": {"target": "Phosphodiesterase 4 (Homo sapiens) (UniProt P27815+Q08499+Q07343+Q08493)", "assay": "Inhibition of human PDE4 at 10 uM measured by radioligand binding assay relative to control", "type": "protein assay"}, "[30]": {"assay": "Thermodynamic solubility in simulated gastric fluid", "type": "physicochemical", "conditions": "read-out: Therm_solubility"}, "[31]": {"assay": "Oral bioavailability in mouse at 10 mg/kg", "type": "ADME, organism-based", "conditions": "in vivo"}, "[32]": {"target": "T2, Peroxisome proliferator-activated receptor gamma (Homo sapiens) (UniProt P37231)", "T2 sequence (whole entry)": "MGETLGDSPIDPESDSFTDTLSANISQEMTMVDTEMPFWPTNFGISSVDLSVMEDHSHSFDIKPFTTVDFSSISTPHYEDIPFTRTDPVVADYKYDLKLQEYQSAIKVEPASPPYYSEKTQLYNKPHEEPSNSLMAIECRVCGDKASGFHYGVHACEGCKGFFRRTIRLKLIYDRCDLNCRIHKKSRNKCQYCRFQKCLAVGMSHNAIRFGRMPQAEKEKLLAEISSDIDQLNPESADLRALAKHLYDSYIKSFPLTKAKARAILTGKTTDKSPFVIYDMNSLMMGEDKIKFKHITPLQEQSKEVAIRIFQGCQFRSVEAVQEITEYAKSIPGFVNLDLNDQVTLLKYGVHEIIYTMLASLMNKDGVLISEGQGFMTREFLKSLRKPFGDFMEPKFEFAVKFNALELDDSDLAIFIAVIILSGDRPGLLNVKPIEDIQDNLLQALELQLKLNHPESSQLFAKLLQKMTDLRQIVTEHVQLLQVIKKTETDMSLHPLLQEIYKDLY", "assay": "Inhibition of human PPARgamma at 10 uM measured by radioligand binding assay relative to control"}, "[33]": {"assay": "Clearance in rat at 3 mg/kg, iv", "type": "ADME, organism-based", "conditions": "in vivo"}}, "note": "Active and inactive are the calls of the source. No cut-off for these calls is given here.", "data": [{"compound": "O=C1NCc2nc(-c3c(F)cccc3F)cc(Nc3ccc(C(=O)N4CCCC4)cc3)c21", "values": [{"measurement": "inhibition", "setting": "[1]", "result": 61, "unit": "%"}, {"measurement": "Vd", "setting": "[2]", "result": 2.5, "unit": "L/kg"}, {"measurement": "inhibition", "setting": "[3]", "result": 66, "unit": "%"}, {"measurement": "Activity", "setting": "[4]", "result": "Active"}, {"measurement": "Vd", "setting": "[5]", "result": 1.9, "unit": "L/kg"}, {"measurement": "fIC50", "setting": "[6]", "result": 0.18, "unit": "µM"}, {"measurement": "IC50", "setting": "[6]; Homo sapiens, Blood", "result": 1.8, "unit": "µM"}, {"measurement": "fraction unbound", "setting": "[7]", "result": 0.13}, {"measurement": "half-life", "setting": "[8]", "result": 6.5, "unit": "h"}, {"measurement": "clearance", "setting": "[9]", "result": 28, "unit": "mL/min/kg"}, {"measurement": "solubility kinetic", "setting": "[10]", "result": 270, "unit": "µM"}, {"measurement": "fIC50", "setting": "[11]", "result": 0.36, "unit": "µM"}, {"measurement": "IC50", "setting": "[11]; Mus musculus, Blood", "result": 5.9, "unit": "µM"}, {"measurement": "bioavailability", "setting": "[12]", "result": 63, "unit": "%"}, {"measurement": "half-life", "setting": "[13]", "result": 1.8, "unit": "h"}, {"measurement": "solubility thermodynamic", "setting": "[14]", "result": 240, "unit": "µM"}, {"measurement": "Activity", "setting": "[15]", "result": "Active"}, {"measurement": "bioavailability", "setting": "[16]", "result": 32, "unit": "%"}, {"measurement": "inhibition in vivo at 100 mg/kg/day", "setting": "[17]", "result": 96, "unit": "%"}, {"measurement": "half-life", "setting": "[18]", "result": 1.6, "unit": "h"}, {"measurement": "fraction unbound", "setting": "[19]", "result": 0.061}, {"measurement": "inhibition in vivo at 100 mg/kg/day", "setting": "[20]", "result": 74, "unit": "%"}, {"measurement": "Vd", "setting": "[21]", "result": 1.2, "unit": "L/kg"}, {"measurement": "fraction unbound", "setting": "[22]", "result": 0.1}, {"measurement": "fraction unbound", "setting": "[23]", "result": 0.13}, {"measurement": "fraction unbound", "setting": "[24]", "result": 0.099}, {"measurement": "Activity", "setting": "[25]", "result": "Active"}, {"measurement": "clearance", "setting": "[26]", "result": 5.2, "unit": "mL/min/kg"}, {"measurement": "inhibition", "setting": "[27]", "result": 56, "unit": "%"}, {"measurement": "fraction unbound", "setting": "[28]", "result": 0.13}, {"measurement": "inhibition", "setting": "[29]", "result": 59, "unit": "%"}, {"measurement": "solubility thermodynamic", "setting": "[30]", "result": 2300, "unit": "µM"}, {"measurement": "bioavailability", "setting": "[31]", "result": "> 90", "unit": "%"}, {"measurement": "inhibition", "setting": "[32]", "result": 68, "unit": "%"}, {"measurement": "clearance", "setting": "[33]", "result": 27, "unit": "mL/min/kg"}]}]}
